This is an account of results in PubChem BioAssay (NCI).

Assay in all cases: NCI anticancer screen, dose series, 48 h
For test [1], the system named is SNB-19 CNS.
The test system of test [2] is PC-3 prostate.
Test [3] relates to HOP-62 NSCLC.
Test [4] relates to NCI-H23 lung.
Test [5] concerns RXF 393 renal.
Test [6] deals with HOP-92 NSCLC.
Test [7] concerns M14 melanoma.
The subject of test [8] is HS 578T breast.
Test [9] relates to MDA-MB-231 breast.

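Growth conditions: 96-well plates. Treatment: test compound, 48 hours, 5 concentrations. Analysis: linear interpolation between bracketing concentrations; unreached endpoints set to highest concentration. Abbreviation: GI50, concentration required for 50% inhibition of growth. The concentration for full growth arrest is given as TGI.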

Regarding `CC[N+](C)(CC)CCN1C(=O)c2ccccc2S1(=O)=O`, the TGI in test [1], in test [2], in test [3], in test [4], in [5] and in [6] was greater than 100 µM each time. For the same compound, the TGI in test [7], in test [8] and in test [9] was greater than 100 µM each time.

Regarding `C=C1C[C@]23C[C@@]1(O)CC[C@H]2[C@@]12C=C[C@H](O)[C@@](C)(C(=O)O1)[C@H]2[C@@H]3C(=O)O`, the TGI in test [1], in test [3], in test [4], in test [5], in test [6] and in test [7] was greater than 100 µM each time.

As to `CSC1SCC2C(=O)N(C)C3(CC3C)C(=O)OCC(NC(=O)c3nc4ccccc4cc3O)C(=O)NC(C)C(=O)N(C)C1C(=O)N(C)C1(CC1C)C(=O)OCC(NC(=O)c1nc3ccccc3cc1O)C(=O)NC(C)C(=O)N2C` (stereo not drawn), the TGI in [1] is 6.9 µM; in [4] it was less than 0.0001 µM; in test [5], less than 0.0001 µM; in [6], less than 0.0001 µM; in test [7], less than 0.0001 µM; in [8] it was less than 0.0001 µM.

In the case of `CCOC(=O)c1cn(-c2ccc(Cl)cc2)c(=O)n2c1nc1ccccc12`, the TGI in test [1], in test [2], in test [3], in test [4], in test [5] and in [6] was greater than 100 µM each time. Further, the TGI in [7] and in test [9] was greater than 100 µM in each case.

Turning to `COS(=O)c1cc(Cl)cc(Cl)c1O` (stereo not drawn), the TGI in test [1], in test [3], in test [4], in test [5] and in test [7] was greater than 100 µM each time.

As for `CSc1nncc(-c2cc3c(c(SC)n2)CCC3)n1`, the TGI in test [1], in test [2], in test [3], in [4], in test [5] and in test [7] was greater than 100 µM each time. The compound also registered a TGI in test [9] greater than 100 µM.

On to `COc1cccc(-c2nc3sccn3c2-c2ccnc(NCCNC(=O)Nc3cccc(C(F)(F)F)c3)n2)c1`, for which the GI50 in [1] is 7.77 µM; in test [2], 2.48 µM; in [3], 6.71 µM; in test [4], 3.42 µM; in test [5], 1.78 µM; in test [6], 0.853 µM. For the same compound, the GI50 was 2.96 µM in [7], 3.15 µM in test [8] and 3.47 µM in test [9]. Moreover, the TGI was greater than 100 µM in [1]; 11.9 µM in test [2]; 42.4 µM in test [3]; 76.9 µM in test [4]; 3.65 µM in test [5]; 9.47 µM in test [6]. Moreover, the values for the TGI in test [7], in test [8] and in test [9] were 8.48 µM, 29 µM and 12 µM, respectively.

As to `CCOC(=O)C(C(=O)Cc1ccccc1)c1ccccc1` (stereo not drawn), the TGI in test [1], in test [3], in [4], in test [6] and in test [7] was greater than 100 µM each time.

As to `OCCN=C1Nc2ccc(Cl)cc2C(=S)N2CSC[C@@H]12`, the TGI in [1], in [2], in [3], in [4], in test [5] and in [6] was greater than 100 µM each time. Also, the TGI in test [7] and in [9] was greater than 100 µM each time.

Turning to `CCOC(=O)c1sc2c(c1OC(=O)c1ccccc1)c(=O)n(-c1ccccc1)c(=S)n2-c1ccccc1`, the TGI in test [1] is greater than 100 µM; in test [2], greater than 100 µM; in test [3], 54.4 µM; in [4], 48.9 µM; in [5], greater than 100 µM; in [6], 79.2 µM. For the same compound, the TGI in test [7] came to 45.2 µM; in [8] it was 75.6 µM; in test [9] it was 87.2 µM.

In the case of `O=[As](O)(O)c1cc(N=Nc2ccc(-c3ccc(N=Nc4cc([As](=O)(O)O)c(O)cc4O)cc3)cc2)c(O)cc1O`, the TGI in test [1], in test [3], in [4], in [5], in [6] and in [7] was greater than 100 µM each time.

Consider `COc1c/c(=C2/C=c3ccccc3=N2)[nH]/c1=C/c1[nH]c(C)cc1C`, for which the GI50 in [1] was 0.598 µM; in test [2], 0.059 µM; in [3] it was 0.0458 µM. Further, the TGI in test [1] was greater than 100 µM; in test [2] it was greater than 100 µM; in test [3], 0.459 µM.
